Laboratory results taken from patent publication EP2090576A1, “6-halo-pyrazolo[1,5-a]pyridines, a process for their preparation and their use as metabotropic glutamate receptor (mGluR) modulators” (Merz Pharma GmbH & Co. KGaA, priority 2008, dated 2009).

What follows are compounds tested against T1, human metabotropic glutamate receptor mGluR5 (Homo sapiens, UniProt P41594) (assay: Cytosolic Calcium studies with stably transfected cells (FLIPR)). Settings: CHO-K1 cells with inducible human mGluR5; test compound added 5 minutes before L-quisqualic acid (concentration giving ~80% of the maximal signal); read-out: mGluR5_FLIPR_h_ CHO_NAM IC50.
T1 construct: expressed in transfected cells; host or cells: CHO-K1 cells (IPTG-inducible expression)
T1 sequence (P41594 21-1212): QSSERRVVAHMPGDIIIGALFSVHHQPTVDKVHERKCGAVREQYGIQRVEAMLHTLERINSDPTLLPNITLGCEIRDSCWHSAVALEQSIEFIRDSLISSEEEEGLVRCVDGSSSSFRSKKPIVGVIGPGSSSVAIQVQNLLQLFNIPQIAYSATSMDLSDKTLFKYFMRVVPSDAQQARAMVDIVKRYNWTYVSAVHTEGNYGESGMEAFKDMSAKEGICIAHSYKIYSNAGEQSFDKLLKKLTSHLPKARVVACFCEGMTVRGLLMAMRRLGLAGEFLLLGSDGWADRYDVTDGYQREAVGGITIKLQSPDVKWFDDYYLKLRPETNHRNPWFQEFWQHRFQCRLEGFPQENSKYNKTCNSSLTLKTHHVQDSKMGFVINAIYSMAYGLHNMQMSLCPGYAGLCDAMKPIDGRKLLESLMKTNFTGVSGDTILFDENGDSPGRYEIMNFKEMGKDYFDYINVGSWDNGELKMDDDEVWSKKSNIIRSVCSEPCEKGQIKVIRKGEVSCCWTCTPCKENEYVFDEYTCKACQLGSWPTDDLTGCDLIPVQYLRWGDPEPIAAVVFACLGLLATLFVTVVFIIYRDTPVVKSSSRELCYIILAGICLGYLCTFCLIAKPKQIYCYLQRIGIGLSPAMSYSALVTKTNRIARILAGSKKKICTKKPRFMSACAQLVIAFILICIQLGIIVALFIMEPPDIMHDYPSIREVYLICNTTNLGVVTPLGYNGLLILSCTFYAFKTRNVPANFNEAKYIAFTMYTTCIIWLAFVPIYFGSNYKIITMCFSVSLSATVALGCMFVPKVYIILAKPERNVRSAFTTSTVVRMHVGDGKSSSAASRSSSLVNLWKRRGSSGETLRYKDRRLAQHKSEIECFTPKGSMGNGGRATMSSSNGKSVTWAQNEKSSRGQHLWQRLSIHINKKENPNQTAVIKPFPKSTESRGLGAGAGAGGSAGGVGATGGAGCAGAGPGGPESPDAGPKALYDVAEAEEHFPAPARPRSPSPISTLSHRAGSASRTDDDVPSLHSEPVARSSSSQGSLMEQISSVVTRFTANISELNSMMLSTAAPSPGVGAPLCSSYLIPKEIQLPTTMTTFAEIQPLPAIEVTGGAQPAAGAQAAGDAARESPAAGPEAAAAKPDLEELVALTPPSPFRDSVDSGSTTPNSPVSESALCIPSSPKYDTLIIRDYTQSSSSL
Format: cell-based
Description: Cytosolic Calcium studies with stably transfected cells:
Chinese hamster ovary cells (CHO-K1 cells), stably transfected for inducible expression of a human metabotropic glutamate receptor mGluR5, are seeded into black clear bottom 96 well plates at a density of 35.000 cells per well. The standard growth medium used (Dulbecco's modified Eagle Medium, DMEM plus L-proline) contains the appropriate inducer isopropyl-β-D-thiogalactopyranosid (IPTG) to achieve optimal receptor expression. One day after seeding the growth medium is exchanged for reconstituted Ca-Kit (Molecular Devices, USA) and incubated for one hour. Ca-Kit is reconstituted in an assay buffer containing 20 mM HEPES pH 7.4, glutamic-pyruvate transaminase, pyridoxal phosphate and sodium pyruvate in Hank's balanced salt solution (HBBS). Agonistic compounds to the receptor elicit increases in cytosolic calcium which can be measured as increases in fluorescence signals by use of a fluorescence imaging plate reader (Molecular Devices).
(§1) The fluorescence signal increase after addition of agonist reflects the increase of cytosolic calcium. Inconsistencies in the amount of cells per well are normalised by using the spatial uniformity correction of the FLIPR software. The mean of replicated temporal data (n=3-5) is calculated and used for graphical representation. For the evaluation of the pharmacology, the calcium changes in response to different concentrations of agonist or antagonist are determined using a maximum minus minimum (MaxMin) calculation.
(§2) All responses (RFU-values) are determined as percentage of control (= maximum response). EC50 and IC50 are calculated according the logistic equation using GraFit 5.0 (Erithacus Software, GB) or Prism 4.0 (GraphPad Software, USA).
CC1c2ccccc2CCN1C(=O)c1cc2ccc(Br)cn2n1 (stereo not shown) [drawing 1009, (6-Bromopyrazolo[1,5-a]pyridin-2-yl)-(1-methyl-3,4-dihydro-1H-isoquinolin-2-yl)-methanone] gave an IC50 of 218 nM. Compound CC1c2ccccc2CCN1C(=O)c1cc2ccc(Cl)cn2n1 (stereo not shown) [drawing 1010, (6-Chloro-pyrazolo[1,5-a]pyridin-2-yl)-(1-methyl-3,4-dihydro-1H-isoquinolin-2-yl)-methanone] has an IC50 of 102 nM. O=C(c1cc2ccc(Br)cn2n1)N1CCc2ncc(Br)cc2C1 [drawing 1011, (3-Bromo-7,8-dihydro-5H-[1,6]naphthyridin-6-yl)-(6-bromo-pyrazolo[1,5-a]pyridin-2-yl)-methanone] gave an IC50 of 306 nM. For CC1c2ccsc2CCN1C(=O)c1cc2ccc(Br)cn2n1 (stereo not shown) [drawing 1012, (6-Bromo-pyrazolo[1,5-a]pyridin-2-yl)-(4-methyl-6,7-dihydro-4H-thieno[3,2-c]pyridin-5-yl)-methanone], the IC50 was 167 nM. In the case of Cc1ccc2n1CCN(C(=O)c1cc3ccc(Br)cn3n1)C2C (stereo not shown) [drawing 1013, 6-bromo-2-[(1,6-dimethyl-3,4-dihydropyrrolo[1,2-a]pyrazin-2(1H)-yl)carbonyl]pyrazol o[1,5-a]pyridine], the IC50 is reported as 178 nM. CC1c2ccoc2CCN1C(=O)c1cc2ccc(Br)cn2n1 (stereo not shown) [drawing 1014, (6-Bromo-pyrazolo[1,5-a]pyridin-2-yl)-(4-methyl-6,7-dihydro-4H-furo[3,2-c]pyridin-5-yl)-methanone] gave an IC50 of 166 nM. In the case of CN1c2ccccc2CCN1C(=O)c1cc2ccc(Br)cn2n1 [drawing 1015, (6-Bromo-pyrazolo[1,5-a]pyridin-2-yl)-(1-methyl-3,4-dihydro-1H-cinnolin-2-yl)-methanone], the IC50 is reported as 410 nM. C[C@@H]1c2ccccc2CCN1C(=O)c1cc2c(Cl)cc(Cl)cn2n1 [drawing 1016, (4,6-Dichloro-pyrazolo[1,5-a]pyridin-2-yl)-((R)-1-methyl-3,4-dihydro-1H-isoquinolin-2-yl)-methanone] showed an IC50 of 114 nM.

These compounds were tested against T2, transmembrane allosteric modulatory sites of mGluR5 receptors (Rattus norvegicus, UniProt P31424) (assay: [3H]-MMPEP binding assay in rat cortical membranes). Settings: radioligand [3H]-MMPEP, 60 minutes at room temperature, read-out: mGluR5_M_ MPEP_r_CTX_ IC50.
T2 construct: from tissue; host or cells: rat cerebral cortex membranes (male Sprague-Dawley rats)
T2 sequence (P31424 21-1203): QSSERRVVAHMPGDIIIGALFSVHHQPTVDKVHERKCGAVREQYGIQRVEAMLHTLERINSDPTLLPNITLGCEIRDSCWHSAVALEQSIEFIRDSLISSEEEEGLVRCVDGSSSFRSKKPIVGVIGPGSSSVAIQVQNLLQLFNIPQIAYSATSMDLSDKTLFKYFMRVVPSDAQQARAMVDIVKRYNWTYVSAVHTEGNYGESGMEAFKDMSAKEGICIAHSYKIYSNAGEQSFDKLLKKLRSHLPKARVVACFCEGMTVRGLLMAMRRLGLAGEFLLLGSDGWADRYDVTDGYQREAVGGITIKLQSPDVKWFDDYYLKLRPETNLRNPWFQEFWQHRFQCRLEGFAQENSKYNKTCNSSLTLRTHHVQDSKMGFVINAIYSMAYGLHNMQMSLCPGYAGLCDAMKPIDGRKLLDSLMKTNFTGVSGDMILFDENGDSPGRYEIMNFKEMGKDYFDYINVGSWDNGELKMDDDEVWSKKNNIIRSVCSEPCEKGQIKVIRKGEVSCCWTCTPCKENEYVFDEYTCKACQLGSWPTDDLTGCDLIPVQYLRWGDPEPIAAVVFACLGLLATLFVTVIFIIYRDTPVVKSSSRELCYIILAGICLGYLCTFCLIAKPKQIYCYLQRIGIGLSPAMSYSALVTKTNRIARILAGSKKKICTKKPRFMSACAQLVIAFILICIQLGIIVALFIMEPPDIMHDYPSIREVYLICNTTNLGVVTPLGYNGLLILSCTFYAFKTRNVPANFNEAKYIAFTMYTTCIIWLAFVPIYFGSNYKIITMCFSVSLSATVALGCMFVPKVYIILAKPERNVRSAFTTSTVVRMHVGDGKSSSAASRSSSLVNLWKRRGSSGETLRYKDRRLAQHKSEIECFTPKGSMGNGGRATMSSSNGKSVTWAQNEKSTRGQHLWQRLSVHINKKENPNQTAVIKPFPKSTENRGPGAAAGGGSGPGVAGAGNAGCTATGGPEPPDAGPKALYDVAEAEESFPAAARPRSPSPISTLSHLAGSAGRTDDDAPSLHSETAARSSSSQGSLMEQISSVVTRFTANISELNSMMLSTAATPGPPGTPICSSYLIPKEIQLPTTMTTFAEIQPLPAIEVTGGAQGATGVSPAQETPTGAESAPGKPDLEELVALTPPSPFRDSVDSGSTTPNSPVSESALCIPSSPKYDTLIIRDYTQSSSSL
Description: Preparation of rat cortical membranes:
The resulting pellet is re-suspended in 20 volumes of distilled water and centrifuged for 20 minutes at 8000 x g. […] All centrifugation steps are carried out at 4°C.
Alternatively, assays are performed with [^3H]-MMPEP (2-(3-methoxyphenylethynyl)-6-methylpyridine hydrochloride) as radioligand. […] Incubations are terminated using a Millipore filter system.
In the case of CC1c2ccccc2CCN1C(=O)c1cc2ccc(Br)cn2n1 (stereo not shown) [drawing 1024, (6-Bromo-pyrazolo[1,5-a]pyridin-2-yl)-(1-methyl-3,4-dihydro-1H-isoquinolin-2-yl)-methanone], the IC50 is reported as 400 nM. For CC1c2ccccc2CCN1C(=O)c1cc2ccc(Cl)cn2n1 (stereo not shown) [drawing 1025, (6-Chloro-pyrazolo[1,5-a]pyridin-2-yl)-(1-methyl-3,4-dihydro-1H-isoquinolin-2-yl)-methanone], the IC50 was 260 nM. CC1c2ccoc2CCN1C(=O)c1cc2ccc(Br)cn2n1 (stereo not shown) [drawing 1026, (6-Bromo-pyrazolo[1,5-a]pyridin-2-yl)-(4-methyl-6,7-dihydro-4H-furo[3,2-c]pyridin-5-yl)-methanone] was tested, and the IC50 was 655 nM. In the case of C[C@@H]1c2ccccc2CCN1C(=O)c1cc2c(Cl)cc(Cl)cn2n1 [drawing 1027, (4,6-Dichloro-pyrazolo[1,5-a]pyridin-2-yl)-((R)-1-methyl-3,4-dihydro-1H-isoquinolin-2-yl)-methanone], the IC50 is reported as 43 nM.

The compounds below were run against T3, mGluR5 receptors (Rattus norvegicus, UniProt P31424) (assay: Cytosolic Calcium studies with astrocytes (astrocyte culture test, FLIPR)). Settings: primary rat cortical astrocytes, 14-15 DIV; 10 minutes pre-incubation, L-quisqualate 100 nM; read-out: mGluR5_FLIPRr_rpA IC50.
T3 construct: Primary astrocyte cultures are prepared from cortices of newborn rats; endogenous in cells; host or cells: primary cortical astrocytes from Sprague-Dawley rat pups (2-4 d old), 14-15 DIV
T3 sequence (P31424 21-1203): as above
Format: cell-based
Description: Primary astrocyte cultures are prepared from cortices of newborn rats as described by Booher and Sensenbrenner (1972, Neurobiology 2(3):97-105). Briefly, Sprague-Dawley rat pups (2 - 4 d old) are decapitated and neocortices are dissected, disintegrated with a nylon filter (pore size 80 µm) and carefully triturated. The cell suspension is plated on poly-D-lysine pre-coated flasks (Costar, Netherlands) and cultivated in Dulbecco's Modified Eagle's Medium (DMEM, Invitrogen, Germany) supplemented with 10% foetal calf serum (FCS, Sigma, Germany), 4 mM glutamine and 50 µg/ml gentamycin (both Biochrom, Germany) at 37°C in a humidified atmosphere of 5% CO2 / 95% air for 7 d with exchanging the medium at day 2 and 6.
After 7 days in vitro (DIV), cells are shaken overnight at 250 rpm to remove oligodendrocytes and microglia. The next day, astrocytes are rinsed twice with CMF-PBS (calcium- and magnesium-free phosphate buffered saline, Biochrom, Germany), trypsinized and subplated on poly-D-lysine pre-coated 96-well plates (Greiner, Germany) at a density of 40,000 cells/well. 24 h after establishing the secondary culture the astrocytes are rinsed with PBS^++ (phosphate buffered saline, Biochrom, Germany) and fed with astrocyte-defined medium (ADM) consisting of DMEM containing 1x G5-supplement (Invitrogen, Germany), 0.5 µg/ml heparan sulfate, and 1.5 µg/ml fibronectin (both Sigma, Germany) (Miller et al., (1993) Brain Res. 618(1):175-8). 3 d later the medium is exchanged and the cells incubated for another 2-3 d, so that at the time of experiments astrocytes are 14-15 DIV.
Cytosolic Calcium studies with astrocytes:
The increase of cytosolic calcium after stimulation with the mGluR5 agonist L-quisqualate is measured using a fluorometric imaging plate reader (FLIPR) and the Ca-Kit (both Molecular Devices). Prior to addition of agonist or antagonist the medium is aspirated and cells are loaded for 2 h at RT with 150 µl of loading buffer consisting of Ca-sensitive dye reconstituted in sodium chloride (123 mM), potassium chloride (5.4 mM), magnesium chloride (0.8 mM), calcium chloride (1.8 mM), D-glucose (15 mM), and HEPES (20 mM), pH 7.3. Subsequently, plates are transferred to FLIPR to detect calcium increase with the addition of L-quisqualate (100 nM) measured as relative fluorescence units (RFU). If antagonists are tested, these compounds are pre-incubated for 10 minutes at RT before addition of the respective agonist.
as §1, §2
In the case of CC1c2ccccc2CCN1C(=O)c1cc2ccc(Br)cn2n1 (stereo not shown) [drawing 1017, (6-Bromo-pyrazolo[1,5-a]pyridin-2-yl)-(1-methyl-3,4-dihydro-1H-isoquinolin-2-yl)-methanone], the IC50 is reported as 151 nM. With CC1c2ccccc2CCN1C(=O)c1cc2ccc(Cl)cn2n1 (stereo not shown) [drawing 1018, (6-Chloro-pyrazolo[1,5-a]pyridin-2-yl)-(1-methyl-3,4-dihydro-1H-isoquinolin-2-yl)-methanone] the IC50 was 45 nM. Compound O=C(c1cc2ccc(Br)cn2n1)N1CCc2ncc(Br)cc2C1 [drawing 1019, (3-Bromo-7,8-dihydro-5H-[1,6]naphthyridin-6-yl)-(6-bromo-pyrazolo[1,5-a]pyridin-2-yl)-methanone] has an IC50 of 108 nM. For CC1c2ccsc2CCN1C(=O)c1cc2ccc(Br)cn2n1 (stereo not shown) [drawing 1020, (6-Bromo-pyrazolo[1,5-a]pyridin-2-yl)-(4-methyl-6,7-dihydro-4H-thieno[3,2-c]pyridin-5-yl)-methanone], the IC50 was 51 nM. With Cc1ccc2n1CCN(C(=O)c1cc3ccc(Br)cn3n1)C2C (stereo not shown) [drawing 1021, 6-bromo-2-[(1,6-dimethyl-3,4-dihydropyrrolo[1,2-a]pyrazin-2(1 H)-yl)carbonyl]pyrazolo[1,5-a]pyridine] the IC50 was 148 nM. With CC1c2ccoc2CCN1C(=O)c1cc2ccc(Br)cn2n1 (stereo not shown) [drawing 1022, (6-Bromo-pyrazolo[1,5-a]pyridin-2-yl)-(4-methyl-6,7-dihydro-4H-furo[3,2-c]pyridin-5-yl)-methanone] the IC50 was 42.5 nM. For CN1c2ccccc2CCN1C(=O)c1cc2ccc(Br)cn2n1 [drawing 1023, (6-Bromo-pyrazolo[1,5-a]pyridin-2-yl)-(1-methyl-3,4-dihydro-1H-cinnolin-2-yl)-methanone], the IC50 was 156 nM.
